# Columns and labels:
# [1] = system: Ctenocephalides felis; assay: In vitro contact test with fleas; settings: read-out: insecticidal activity; for pest or weed control at 0.04 µg/cm2, 0.04 µg/cm2: dose 0.04 μg/cm^2, dead or moribund fleas after 48 h; for pest or weed control at 0.2 µg/cm2, 0.2 µg/cm2: dose 0.2 μg/cm^2, dead or moribund fleas after 48 h; for pest or weed control at 1 µg/cm2, 1 µg/cm2: dose 1 μg/cm^2, dead or moribund fleas after 48 h
# In short: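 Activity is the percentage of fleas dead or moribund at 48 h, judged by immobility or uncoordinated movement after tapping. Tubes were coated by evaporating acetone solutions (900 ppm gives 5 μg/cm^2), then held 5-10 adult fleas of both sexes at room temperature and ambient humidity.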
# [2] = system: Amblyomma americanum; assay: In vitro contact test with hard ticks (Amblyomma americanum nymphs); settings: read-out: acaricidal activity; for pest or weed control at 0.2 µg/cm2, 0.2 µg/cm2: dose 0.2 μg/cm^2, 48 h; for pest or weed control at 1 µg/cm2, 1 µg/cm2: dose 1 μg/cm^2, 48 h
# In short: (§1)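 Acaricidal activity = % ticks dead or moribund after 48 h contact with acetone-deposited compound on vial walls (e.g., 900 ppm solution → 5 μg/cm^2). Ambient conditions for R. sanguineus, 21° C./85% rel. hum. for other species; heat challenge at 45-50° C. separated climbers from moribund ticks.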
# [3] = system: Dermacentor variabilis; assay: In vitro contact test with adult hard ticks (Dermacentor variabilis); settings: read-out: acaricidal activity; for pest or weed control at 0.2 µg/cm2, 0.2 µg/cm2: dose 0.2 μg/cm^2, 48 h; for pest or weed control at 1 µg/cm2, 1 µg/cm2: dose 1 μg/cm^2, 48 h
# In short: as §1
# [4] = system: Rhipicephalus (Boophilus) microplus; assay: In vitro injection test with Rhipicephalus (Boophilus) microplus (BOOPMI Inj); settings: 168 h, laid fertile eggs after 7 days, read-out: acaricidal activity; for pest or weed control at 32 ng: dose 0.032 μg/animal injected; for pest or weed control at 0.00016 mg: dose 0.16 μg/animal injected; for pest or weed control at 0.0008 mg: dose 0.8 μg/animal injected
# In short: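 Five engorged adult females each get a 1 μl abdominal injection of compound dissolved and diluted in DMSO. Kept 7 days at 28° C./85% rel. hum.; percent activity rates egg laying and egg fertility (0% all fertile, 100% none laid or infertile).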
# [5] = system: Ctenocephalides felis; assay: Ctenocephalides felis in-vitro feeding test with fleas (CTECFE oral); settings: 48 hours, read-out: insecticidal feeding activity; for pest or weed control at 0.16 ppm: dose 0.16 ppm in citrated cattle blood; for pest or weed control at 0.8 ppm: dose 0.8 ppm in citrated cattle blood; for pest or weed control at 4 ppm: dose 4 ppm in citrated cattle blood
# In short: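 Scored as percent fleas killed (0–100%) 48 hours after feeding began. Compound, dissolved in DMSO and diluted into citrated cattle blood, was offered via a parafilm membrane to roughly 20 adult male and female C. felis at about 37° C.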
# [6] = system: Spodoptera litura; assay: Insecticidal testing against common cutworm; assay type: in vivo; settings: foliar, 144 h, concentration 100 ppm, cabbage leaf dip, second-stage larvae, after 6 days, read-out: pesticidal rate
# Text: Insecticidal Testing Against Common Cutworm (Spodoptera litura)
# [7] = system: Plutella xylostella; assay: Insecticidal testing against diamondback moth; assay type: in vivo; settings: foliar, 144 h, concentration 100 ppm, cabbage leaf dip, third-stage larvae, after 6 days, read-out: pesticidal rate
# Text: Insecticidal Testing Against Diamondback Moth (Plutella xylostella)
# [8] = system: Laodelphax striatellus; assay: Insecticidal testing against small brown planthopper; assay type: in vivo; settings: 144 h, concentration 100 ppm, sprayed rice seedlings, after 6 days, read-out: pesticidal rate
# Method: Insecticidal Testing Against Small Brown Planthopper (Laodelphax striatellus)
# An additional test was carried out with 10 small brown planthoppers by preparing an acetone solution of the testing compound diluted to a predetermined concentration, spraying the solution onto rice seedlings and air drying the rice seedlings. The medicament was all used as received. The rice seedlings were placed in a constant-temperature room at 25° C., and the survival rate was investigated after 6 days. The test was carried out by means of one group of 10 pests.
# [9] = system: Rhipicephalus sanguineus; assay: In vitro contact test with adult hard ticks (Rhipicephalus sanguineus); settings: read-out: acaricidal activity; for pest or weed control at 0.2 µg/cm2, 0.2 µg/cm2: dose 0.2 μg/cm^2, 48 h; for pest or weed control at 1 µg/cm2, 1 µg/cm2: dose 1 μg/cm^2, 48 h
# In short: as §1
smiles,measurement,setting,value
CN(C(=O)c1ccc(F)cc1F)c1cccc(C(=O)Nc2c(I)cc(C(F)(C(F)(F)F)C(F)(F)F)cc2C(F)(F)F)c1F [Compound 56],"pest or weed control at 0.04 µg/cm2, 0.04 µg/cm2",[1],95%
same,"pest or weed control at 0.2 µg/cm2, 0.2 µg/cm2",[1],95%
same,"pest or weed control at 1 µg/cm2, 1 µg/cm2",[1],95%
same,"pest or weed control at 0.04 µg/cm2, 0.04 µg/cm2","[2]; dose 0.04 μg/cm^2, 48 h",90%
same,"pest or weed control at 0.2 µg/cm2, 0.2 µg/cm2",[2],90%
same,"pest or weed control at 1 µg/cm2, 1 µg/cm2",[2],90%
same,"pest or weed control at 0.2 µg/cm2, 0.2 µg/cm2",[3],90%
same,"pest or weed control at 1 µg/cm2, 1 µg/cm2",[3],90%
same,pest or weed control at 32 ng,[4],100%
same,pest or weed control at 0.00016 mg,[4],100%
same,pest or weed control at 0.0008 mg,[4],100%
same,pest or weed control at 0.16 ppm,[5],95%
same,pest or weed control at 0.8 ppm,[5],95%
same,pest or weed control at 4 ppm,[5],95%
same,pest or weed control at 100 ppm,[6],≥ 70%
same,pest or weed control at 100 ppm,[7],≥ 70%
same,pest or weed control at 100 ppm,[8],≥ 70%
CN(C(=O)c1ccc(C#N)nc1)c1cccc(C(=O)Nc2c(I)cc(C(F)(C(F)(F)F)C(F)(F)F)cc2C(F)(F)F)c1F [Compound 57],"pest or weed control at 0.04 µg/cm2, 0.04 µg/cm2",[1],95%
same,"pest or weed control at 0.2 µg/cm2, 0.2 µg/cm2",[1],95%
same,"pest or weed control at 1 µg/cm2, 1 µg/cm2",[1],95%
same,"pest or weed control at 1 µg/cm2, 1 µg/cm2",[2],90%
same,"pest or weed control at 0.2 µg/cm2, 0.2 µg/cm2",[3],90%
same,"pest or weed control at 1 µg/cm2, 1 µg/cm2",[3],90%
same,"pest or weed control at 0.2 µg/cm2, 0.2 µg/cm2",[9],90%
same,"pest or weed control at 1 µg/cm2, 1 µg/cm2",[9],90%
same,pest or weed control at 32 ng,[4],100%
same,pest or weed control at 0.00016 mg,[4],100%
same,pest or weed control at 0.0008 mg,[4],100%
same,pest or weed control at 0.16 ppm,[5],95%
same,pest or weed control at 0.8 ppm,[5],95%
same,pest or weed control at 4 ppm,[5],95%
same,pest or weed control at 100 ppm,[6],≥ 70%
same,pest or weed control at 100 ppm,[7],≥ 70%
same,pest or weed control at 100 ppm,[8],≥ 70%
CN(C(=O)c1ccc(Cl)cc1)c1cccc(C(=O)Nc2c(I)cc(C(F)(C(F)(F)F)C(F)(F)F)cc2C(F)(F)F)c1F [Compound 60],"pest or weed control at 0.2 µg/cm2, 0.2 µg/cm2",[1],95%
same,"pest or weed control at 1 µg/cm2, 1 µg/cm2",[1],95%
same,"pest or weed control at 0.2 µg/cm2, 0.2 µg/cm2",[2],90%
same,"pest or weed control at 1 µg/cm2, 1 µg/cm2",[2],90%
same,"pest or weed control at 1 µg/cm2, 1 µg/cm2",[3],90%
same,"pest or weed control at 0.2 µg/cm2, 0.2 µg/cm2",[9],90%
same,"pest or weed control at 1 µg/cm2, 1 µg/cm2",[9],90%
same,pest or weed control at 32 ng,[4],100%
same,pest or weed control at 0.00016 mg,[4],100%
same,pest or weed control at 0.0008 mg,[4],100%
same,pest or weed control at 0.16 ppm,[5],95%
same,pest or weed control at 0.8 ppm,[5],95%
same,pest or weed control at 4 ppm,[5],95%
same,pest or weed control at 100 ppm,[6],≥ 70%
same,pest or weed control at 100 ppm,[7],≥ 70%
same,pest or weed control at 100 ppm,[8],≥ 70%
COc1ccc(C(=O)N(C)c2cccc(C(=O)Nc3c(I)cc(C(F)(C(F)(F)F)C(F)(F)F)cc3C(F)(F)F)c2F)cc1 [Compound 62],"pest or weed control at 0.2 µg/cm2, 0.2 µg/cm2",[1],95%
same,"pest or weed control at 1 µg/cm2, 1 µg/cm2",[1],95%
same,"pest or weed control at 1 µg/cm2, 1 µg/cm2",[2],90%
same,"pest or weed control at 1 µg/cm2, 1 µg/cm2",[3],90%
same,"pest or weed control at 1 µg/cm2, 1 µg/cm2",[9],90%
same,pest or weed control at 0.00016 mg,[4],100%
same,pest or weed control at 0.0008 mg,[4],100%
same,pest or weed control at 0.16 ppm,[5],95%
same,pest or weed control at 0.8 ppm,[5],95%
same,pest or weed control at 4 ppm,[5],95%
same,pest or weed control at 100 ppm,[6],≥ 70%
same,pest or weed control at 100 ppm,[7],≥ 70%
same,pest or weed control at 100 ppm,[8],≥ 70%
O=C(Nc1cccc(C(=O)Nc2c(I)cc(C(F)(C(F)(F)F)C(F)(F)C(F)(F)F)cc2C(F)(F)F)c1F)c1ccc(Cl)c(Cl)c1 (stereo not shown) [Compound 76],"pest or weed control at 1 µg/cm2, 1 µg/cm2",[2],90%
same,"pest or weed control at 0.2 µg/cm2, 0.2 µg/cm2",[3],90%
same,"pest or weed control at 1 µg/cm2, 1 µg/cm2",[3],90%
same,"pest or weed control at 0.04 µg/cm2, 0.04 µg/cm2","[9]; dose 0.04 μg/cm^2, 48 h",90%
same,"pest or weed control at 0.2 µg/cm2, 0.2 µg/cm2",[9],90%
same,"pest or weed control at 1 µg/cm2, 1 µg/cm2",[9],90%
same,pest or weed control at 0.00016 mg,[4],100%
same,pest or weed control at 0.0008 mg,[4],100%
same,pest or weed control at 0.8 ppm,[5],95%
same,pest or weed control at 4 ppm,[5],95%
same,pest or weed control at 100 ppm,[6],≥ 70%
same,pest or weed control at 100 ppm,[7],≥ 70%
same,pest or weed control at 100 ppm,[8],≥ 70%
